# Measurements: patent US7470821B2, “Aldolase-inhibiting aromatic compounds” (Valorisation-Recherche, Limited Partnership, priority 2003, dated 2008)
# Read-outs that look alike come from different tables or passages of the source.
# Assays:
# rabbit muscle aldolase = biological target: T1, rabbit muscle aldolase (Oryctolagus cuniculus, UniProt P00883); conditions: cited from earlier work; for Ki: Blonski et al., 1997
# T1 sequence (P00883 1-364): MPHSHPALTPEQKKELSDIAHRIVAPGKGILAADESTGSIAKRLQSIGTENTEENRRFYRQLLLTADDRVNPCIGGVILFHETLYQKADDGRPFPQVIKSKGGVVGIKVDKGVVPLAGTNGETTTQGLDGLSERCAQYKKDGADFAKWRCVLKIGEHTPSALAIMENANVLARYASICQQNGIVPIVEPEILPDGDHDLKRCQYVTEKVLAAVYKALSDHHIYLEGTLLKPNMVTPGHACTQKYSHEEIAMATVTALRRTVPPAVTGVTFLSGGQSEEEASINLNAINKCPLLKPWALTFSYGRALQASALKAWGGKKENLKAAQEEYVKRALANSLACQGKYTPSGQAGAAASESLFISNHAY
# [1] = biological target: T2, native aldolase from rabbit muscle (RM) (Oryctolagus cuniculus, UniProt P00883); test: Aldolase activity by coupled enzyme test (TIM/GDH), inactivation and reactivation kinetics; type: biochemical
# T2 construct: made in house
# T2 sequence (P00883 1-364): T1 sequence (P00883 1-364)
# Experimental: Aldolase activity was measured using a coupled enzyme test system: the triose-phosphate isomerase and glycerol-3-phosphate deshydrogenase (TIM/GDH) system, following oxidation of the NADH (Boehringer-Mannheim, France) at 340 nm, by means of a SAFAS spectrophotometer preheated to 25° C. Testing began with the addition of the substrate (Fru(1.6)P2; […] in final concentration), to complete an aldolase solution created in a triethanolamine buffer (TEA buffer) (100 Mm TEA/HCl; 50 mM NaCl; 1 mM EDTA, pH 7.6; ionic strength 0.15), 0.42 mM of NADH, and containing both enzyme systems (10 μg/mL of GDH and 1 μg/mL of TIM) for a final volume of 1 mL. The construction, overexpression and purification of recombinant aldolase were carried out in accordance with Morris A. J. et al., 1993 (J. Biol. Chem., 265:1095-1100) and Berthiaume L. et al., 1993 (J. Biol. Chem., 268:10826-10835).
# The substrate cleavage rate was determined by measuring the decrease in absorbance/minute at 340 nm. The aldolase was dialyzed overnight at 4° C. against a TEA buffer prior to use. The protein concentration was determined by spectrophotometry, using ε280=0.91 mL.mg^−1.cm^−1 as an extinction coefficient. Subunit concentration was determined on the basis of a molecular weight of 159,000 for an aldolase tetramer. • Kinetic Method:
# In the extreme situation where k−2 approaches zero, a reversible slow-binding inhibitor may resemble an irreversible one directed toward the active site. In this situation, the equation eqn.(3) is used for this type of inhibition (Meloche H. P., 1967, Biochemistry, 6:2273-2280). The semi-inactivation time of the enzyme (t1/2) is defined as a function of the mutual inhibitor concentration and is graphically represented by a straight line crossing the Y-axis at […] and crossing the X-axis at −1/Ki. • Experimental Protocol:
# Native aldolase (5 μM of subunits) is incubated in the presence of FHN-P (0.05-1 mM) in TEA buffer. Enzyme activity is analyzed as a function of time using 10 μl aliquot portions.
# Inactivation kinetics follow pseudo-first-order kinetics, and kinetic parameters Ki and k2 are determined by using the equation eqn.(3). To determine the reactivation rate, aldolase (25 μM of subunits in the TEA buffer) is incubated with 500 μM of FHN-P until reaching 90% inactivation. Excess inhibitor is removed by ultrafiltration with a PM-30 Millipore membrane. The enzyme-inhibitor complex is incubated in the TEA buffer (15 μM of subunits at final concentration) containing hexitol-P2 (10 mM). Aliquot portions (10 μl) are removed at different times to measure aldolase activity.
# Controls involve repeating the protocol without FHN-P. The reactivation process is analyzed as if it were a first-order reaction. • Monitored by UV-Visible Differential Spectroscopy.
# [2] = rabbit muscle aldolase, read-out: dissociation constant (or inhibition constant) Ki
smiles,measurement,setting,value
"O=Cc1ccc(OP(=O)(O)O)cc1 [HBA-P, benzaldehyde-4-phosphate]",Ki,rabbit muscle aldolase; [2],~500 µM
O=P(O)(O)Oc1cccc(OP(=O)(O)O)c1 [RSN-P2],Ki,rabbit muscle aldolase; [2],~50 µM
"O=Cc1ccc2cc(O)ccc2c1O [DHNA, 1,6-dihydroxy-2-naphthaldehyde, reference compound]",aldolase inactivation (in words),"[1]; 250 μM, same conditions as Table 1",totally inactive
same,Specific activity,"[1]; RM 0.2 mg/mL, compound 250 μM, TEA buffer pH 7.6, 80 min incubation, RM alone 12.5 ± 0.5",12.5 ± 0.5 Unit/mg
O=P(O)(O)Oc1ccc(OP(=O)(O)O)cc1 [HQN-P2],Ki,rabbit muscle aldolase; [2],~135 µM
O=Cc1ccc(OP(=O)(O)O)cc1O [2-hydroxybenzaldehyde-4-phosphate],reduction of aldolase activity,rabbit muscle aldolase; inhibitor concentration of around 200 μM,80%
same,Ki,"rabbit muscle aldolase; reversible time-dependent inhibitor, read-out: global inhibition constant Ki*",35 ± 5 µM
